Values joined by “and” are separate entries in the source; they are usually repeats but may differ in a detail not shown here. Equal values may be shown once.
Legend:
[1] = target: T1, AMPK-γ2 CBS1-4 (R531G) (Homo sapiens, UniProt Q9UGJ0, R531G); assay: Filter binding assay, GST-CBS domain fusion; conditions: for Kd: two site Hill plot model, read-out: B0.5
T1 construct: all four CBS domains (CBS1-4, residues 274-569); made in house; host or cells: E. coli BL21 (DE3)
Experimental: (§1) With the H383R, T400N and R531G mutants there were large increases in B0.5 (6-, 8- and 10-fold) with no significant change in Hill coefficient.
(§2) Various concentrations of [^14C]-AMP, [γ^32P] […] Reactions were stopped by spotting 10 ìl onto a Millipore MF Filter Membrane disc and rapidly washing under high vacuum with 1 ml of ice-cold TBS. Radioactivity was determined on the filters by scintillation counting. Non-specific binding (which was trivial) was determined by performing the assay with GST as a control, and was subtracted. […] Data were fitted to the binding models given in the text, using GraphPad Prism 3. Estimates of parameters resulting from fits are quoted in the text and Table 1±standard error, and the curves shown in figures are theoretical curves obtained using those estimates.

[2] = target: T2, AMPK-γ2 CBS1-4 (R302Q) (Homo sapiens, UniProt Q9UGJ0, R302Q); assay: Filter binding assay, GST-CBS domain fusion; conditions: for Kd: two site Hill plot model, read-out: B0.5
T2 construct: all four CBS domains (CBS1-4, residues 274-569); made in house; host or cells: E. coli BL21 (DE3)
T2 sequence (Q9UGJ0 274-569 R302Q): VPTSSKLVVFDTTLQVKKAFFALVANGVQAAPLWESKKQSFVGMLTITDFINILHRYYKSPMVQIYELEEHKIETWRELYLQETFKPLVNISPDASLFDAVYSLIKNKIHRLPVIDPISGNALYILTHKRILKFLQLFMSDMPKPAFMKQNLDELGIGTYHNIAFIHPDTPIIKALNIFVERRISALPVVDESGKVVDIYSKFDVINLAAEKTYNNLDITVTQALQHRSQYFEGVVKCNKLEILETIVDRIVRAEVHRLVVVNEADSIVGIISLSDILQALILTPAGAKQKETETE
Experimental: as §1, §2

[3] = target: T3, AMPK-γ2 CBS1-4 (Lins) (Homo sapiens, UniProt Q9UGJ0, INS350L); assay: Filter binding assay, GST-CBS domain fusion; conditions: for Kd: two site Hill plot model, read-out: B0.5
T3 construct: fused on or other part: GST at the N-terminus followed by a hexaglycine spacer (pGEX-KG)
T3 sequence (Q9UGJ0 with tags, fused parts or gaps INS350L): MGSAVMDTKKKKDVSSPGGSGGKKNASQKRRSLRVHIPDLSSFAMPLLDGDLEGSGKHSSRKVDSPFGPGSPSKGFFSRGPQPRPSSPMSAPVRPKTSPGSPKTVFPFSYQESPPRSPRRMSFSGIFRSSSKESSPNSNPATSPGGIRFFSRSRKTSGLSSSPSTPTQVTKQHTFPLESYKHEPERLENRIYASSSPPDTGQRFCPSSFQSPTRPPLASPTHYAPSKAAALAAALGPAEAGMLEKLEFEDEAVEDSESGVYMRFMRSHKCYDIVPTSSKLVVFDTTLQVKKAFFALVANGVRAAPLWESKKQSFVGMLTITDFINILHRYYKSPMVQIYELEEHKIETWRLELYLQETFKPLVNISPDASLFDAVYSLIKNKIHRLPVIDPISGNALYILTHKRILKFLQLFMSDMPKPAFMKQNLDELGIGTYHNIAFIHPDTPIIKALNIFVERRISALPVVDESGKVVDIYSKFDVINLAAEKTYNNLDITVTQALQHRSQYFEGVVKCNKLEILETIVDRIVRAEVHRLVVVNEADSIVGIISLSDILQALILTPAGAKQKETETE
Experimental: as §1, §2

[4] = target: T4, AMPK-γ2 CBS1-4 (H383R) (Homo sapiens, UniProt Q9UGJ0, H383R); assay: Filter binding assay, GST-CBS domain fusion; conditions: for Kd: two site Hill plot model, read-out: B0.5
T4 construct: all four CBS domains (CBS1-4, residues 274-569); made in house; host or cells: E. coli BL21 (DE3)
T4 sequence (Q9UGJ0 274-569 H383R): as the sequence (Q9UGJ0 274-569 R302Q) above, with Q29R, H110R counted along it
Experimental: as §1, §2

[5] = target: T5, AMPK-γ2 CBS1-4 (T400N) (Homo sapiens, UniProt Q9UGJ0, T400N); assay: Filter binding assay, GST-CBS domain fusion; conditions: for Kd: two site Hill plot model, read-out: B0.5
T5 construct: all four CBS domains (CBS1-4, residues 274-569); made in house; host or cells: E. coli BL21 (DE3)
T5 sequence (Q9UGJ0 274-569 T400N): as the sequence (Q9UGJ0 274-569 R302Q) above, with Q29R, T127N counted along it
Experimental: as §1, §2

[6] = target: T6, recombinant á1â1γ2 heterotrimer (R531G) (Homo sapiens, UniProt Q9UGJ0, R531G); assay: AMPK heterotrimer kinase assay, activation by AMP; type: biochemical
T6 construct: expressed in transfected cells; host or cells: CCL13 cells
T6 sequence (Q9UGJ0 whole entry R531G): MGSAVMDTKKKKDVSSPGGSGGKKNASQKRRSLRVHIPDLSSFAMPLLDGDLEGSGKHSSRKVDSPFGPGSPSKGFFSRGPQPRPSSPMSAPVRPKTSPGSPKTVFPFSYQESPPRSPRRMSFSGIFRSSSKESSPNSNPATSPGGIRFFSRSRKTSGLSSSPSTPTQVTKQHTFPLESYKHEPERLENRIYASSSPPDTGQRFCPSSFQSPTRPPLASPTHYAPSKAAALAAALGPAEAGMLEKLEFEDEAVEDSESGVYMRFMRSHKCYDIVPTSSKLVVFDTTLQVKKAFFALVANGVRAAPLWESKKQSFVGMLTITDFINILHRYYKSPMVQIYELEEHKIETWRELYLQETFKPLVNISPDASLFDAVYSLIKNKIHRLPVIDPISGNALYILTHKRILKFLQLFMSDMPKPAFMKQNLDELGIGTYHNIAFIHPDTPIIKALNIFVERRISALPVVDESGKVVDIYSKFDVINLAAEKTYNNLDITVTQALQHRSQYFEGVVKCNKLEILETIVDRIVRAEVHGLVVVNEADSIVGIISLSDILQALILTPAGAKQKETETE
T6 sequence (P54645 whole entry partner): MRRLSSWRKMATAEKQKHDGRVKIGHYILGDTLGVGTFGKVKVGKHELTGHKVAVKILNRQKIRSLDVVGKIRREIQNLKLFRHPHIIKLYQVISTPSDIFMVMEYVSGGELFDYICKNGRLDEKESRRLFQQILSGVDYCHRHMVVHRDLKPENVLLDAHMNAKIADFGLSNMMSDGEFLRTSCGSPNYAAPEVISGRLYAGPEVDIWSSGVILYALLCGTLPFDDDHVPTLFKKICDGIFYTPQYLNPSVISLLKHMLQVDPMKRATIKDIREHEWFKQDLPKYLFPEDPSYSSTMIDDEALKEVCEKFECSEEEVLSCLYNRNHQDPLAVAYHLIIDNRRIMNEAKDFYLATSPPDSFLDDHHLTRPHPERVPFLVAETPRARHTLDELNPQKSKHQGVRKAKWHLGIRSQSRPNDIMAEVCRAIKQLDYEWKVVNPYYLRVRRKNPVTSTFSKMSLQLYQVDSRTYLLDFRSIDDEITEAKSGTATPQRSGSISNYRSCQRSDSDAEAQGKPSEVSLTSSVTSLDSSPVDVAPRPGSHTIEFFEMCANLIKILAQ
T6 sequence (P80386 whole entry partner): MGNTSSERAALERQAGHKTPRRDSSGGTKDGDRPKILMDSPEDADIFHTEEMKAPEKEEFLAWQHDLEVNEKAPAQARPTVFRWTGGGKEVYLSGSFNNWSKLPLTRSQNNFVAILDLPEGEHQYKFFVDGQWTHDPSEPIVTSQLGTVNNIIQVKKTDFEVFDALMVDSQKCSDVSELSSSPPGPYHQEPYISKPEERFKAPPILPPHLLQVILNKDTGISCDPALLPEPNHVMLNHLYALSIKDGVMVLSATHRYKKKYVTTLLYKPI
Description: (§3) Plasmids expressing myc-tagged á1, â1 and γ1, γ2 (with or without WPWS mutations) or γ3 were expressed in CCL13 cells and the recombinant complexes immunoprecipitated using anti-myc antibodies.
(§4) For this reason, the estimates of A0.5 for the H383R and T400N mutants are somewhat less accurate than the others, while no value could be obtained for the R531 G mutant. […] With some mutants, the maximal activation also appeared to be affected.
(§5) PCDNA plasmids (14,25,32) encoding á1, â1 and γ1, γ2 or γ3 were expressed in CCL13 cells (25), subject to “rapid lysis”, immunoprecipitated using anti-myc antibody, and assayed as described previously (33). “Slow lysis” of CCL13 cells was as described by Stein et al (34).

[7] = target: recombinant á1â1γ2 heterotrimer (Lins) (Homo sapiens, UniProt Q9UGJ0, INS350L); assay: AMPK heterotrimer kinase assay, activation by AMP; type: biochemical; conditions: immunoprecipitated from CCL13 cells, slow lysis; read-out: A0.5
recombinant á1â1γ2 heterotrimer (Lins), sequence (Q9UGJ0 with tags, fused parts or gaps INS350L): as the sequence (Q9UGJ0 with tags, fused parts or gaps INS350L) above
Description: as §3, §4, §5

[8] = target: T7, AMPK-γ2 CBS1-4 (WT) (Homo sapiens, UniProt Q9UGJ0); assay: Filter binding assay, GST-CBS domain fusion; conditions: for Kd: two site Hill plot model, read-out: B0.5 (concentration giving half-maximal binding)
T7 construct: all four CBS domains (CBS1-4, residues 274-569); made in house; host or cells: E. coli BL21 (DE3)
T7 sequence (Q9UGJ0 274-569): as the sequence (Q9UGJ0 274-569 R302Q) above, with Q29R counted along it
Description: The boundaries of the CBS domains were taken from the alignments by Bateman. Using a plasmid encoding human γ2 as the template, PCR was used to produce DNAs encoding all four CBS domains (CBS1-4, residues 274-569), the N-terminal pair (CBS1-2, residues 274-410) or the C-terminal pair (CBS3-4, residues 430-556). The PCR primers had been designed to create BamHI and XhoI sites at the ends, and these were used to insert them into a vector that created a fusion protein with glutathione-S-transferase at the N-terminal end followed by a hexaglycine spacer, with the CBS domains at the C-terminus. All three constructs were expressed in E. coli and could be purified on glutathione-Sepharose as soluble proteins of the expected sizes in good yield (CBS1-4, 61 kDa, 5 mg/L of culture; CBS1-2, 43 kDa, 2 mg/L; CBS3-4, 43 kDa, 2 mg/L).
as §1, §2

[9] = test system: AMPK; assay: Activation of AMPK (data not shown); type: biochemical; conditions: read-out: concentration giving half-maximal activation
[10] = target: T8, IMPDH2 CBS1-2 (WT) (Homo sapiens, UniProt P12268); assay: Filter binding assay, isolated CBS domain pair; conditions: single-site model
T8 construct: DNAs encoding residues 112-232 or the full-length protein (1-514) were amplified; His tag (pHAT20 vector); made in house; host or cells: E. coli
T8 sequence (P12268 112-232): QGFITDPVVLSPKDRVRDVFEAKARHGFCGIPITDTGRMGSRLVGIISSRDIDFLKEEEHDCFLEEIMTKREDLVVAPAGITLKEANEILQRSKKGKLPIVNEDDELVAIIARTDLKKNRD
Description: To examine whether binding of adenine nucleotides is a general function for CBS domains, or is specific to the γ subunits of AMPK, IMP dehydrogenase (IMPDH) was also studied. Retinitis pigmentosa can be caused by an R224P mutation in the second CBS domain of the IMPDH1 isoform (27). However, the IMPDH2 isoform is 84% identical in amino acid sequence with IMPDH1, and the arginine mutated in retinitis pigmentosa is conserved. Because the IMPDH2 isoform is ubiquitously expressed and a suitable cDNA to use as a template for PCR was more readily available, DNA encoding the single pair of CBS domains from human IMPDH2 was cloned, an R224P mutation was created and expressed both the wild type and the mutant as His-tagged proteins in E. coli.
For IMPDH2, DNAs encoding residues 112-232 or the full-length protein (1-514) were amplified using human liver cDNA (Clontech) as template, and cloned into pHAT20 (Clontech) using 5′-AgeI and 3′-KpnI sites added to the primers. For the other constructs, DNAs encoding residues 582-840 of CLC2, or 416-551 of cystathionine â-synthase, were amplified using human liver cDNA as template, and cloned into pGEX-KG as above using 5′-BamHI and 3′-XhoI sites added to the primers. All mutations were created using the Stratagene QuikChange Site-directed Mutagenesis system.
The IMPDH2 constructs were His-tagged and were purified on chelating-Sepharose (Pharmacia) charged with 50 mM CoCl2 according to manufacturer's instructions.
as §2, with “Estimates of parameters resulting from fits are quoted in the text and Table 1±standard error, and the curves shown in figures are theoretical curves obtained using those estimates.” left out

[11] = target: T9, AMPK-γ2 CBS1-2 construct (Homo sapiens, UniProt Q9UGJ0); assay: Displacement of [14C]AMP by unlabelled MgATP; type: binding; conditions: high concentrations of MgATP
T9 construct: the N-terminal pair (CBS1-2, residues 274-410); made in house; host or cells: E. coli BL21 (DE3)
T9 sequence (Q9UGJ0 274-410): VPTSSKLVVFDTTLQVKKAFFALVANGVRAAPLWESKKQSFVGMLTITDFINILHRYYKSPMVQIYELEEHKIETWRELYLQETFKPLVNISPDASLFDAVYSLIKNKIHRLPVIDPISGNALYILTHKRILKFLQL
Experimental: This yielded estimates for KdAMP and KdATP of 51 and 180 iM. These are very close to the estimates obtained by direct binding measurements (53 and 175 iÌ).
as §2

T1 sequence (Q9UGJ0 274-569 R531G): as the sequence (Q9UGJ0 274-569 R302Q) above, with Q29R, R258G counted along it

Structure (SMILES) | h (Hill coefficient) [1] | Kd [1] | h (Hill coefficient) [2] | Kd [2] | h (Hill coefficient) [3] | Kd [3] | h (Hill coefficient) [4] | Kd [4] | h (Hill coefficient) [5] | Kd [5] | h (Hill coefficient) [8] | Kd [8] | Kd [10] | also measured
Nc1ncnc2c1ncn2[C@@H]1O[C@H](COP(=O)(O)O)[C@@H](O)[C@H]1O [AMP, adenosine monophosphate] | 1.6 ± 0.2 | 2800 ± 220 µM | 1.9 ± 0.2 | 158 ± 9 µM | 1.8 ± 0.1 | 130 ± 4 µM | 1.8 ± 0.2 | 725 ± 36 µM | 1.8 ± 0.1 | 1360 ± 47 µM | 2.2 ± 0.1 | 61 µM | 437 ± 53 µM | increase in B0.5 relative to wild type [1]: 46 fold; change in B0.5 relative to wild type [2]: 2.6 fold; increase in B0.5 relative to wild type [4]: 12 fold; increase in B0.5 relative to wild type [5]: 22 fold; effect of adding AMP on activity [6]: inhibited; EC50 ([6]; read-out: A0.5): > 100 µM; EC50 [7]: 9 ± 4 µM; EC50 [9]: 4.7 µM
Nc1ncnc2c1ncn2[C@@H]1O[C@H](COP(=O)(O)OP(=O)(O)OP(=O)(O)O)[C@@H](O)[C@H]1O [ATP] | 2.7 ± 0.5 | 2550 ± 230 µM | 1.3 and 1.3 ± 0.2 | 193 ± 25 µM | 1.8 ± 0.2 | 335 ± 28 µM | 2.4 ± 0.2 | 1470 ± 55 µM | 1.7 ± 0.2 | 2000 ± 160 µM | 2.2 and 2.2 ± 0.2 | 257 ± 14 µM | 54 µM | displacement of [14C]AMP binding [11]: completely displaced

— patent US20050202511A1, “AMP-activated protein kinase (AMPK) inhibitor screening assay” (priority 2002, published 2005)
